Laboratory results as given in patent US20110224215A1, “PRE-SURGICAL TREATMENT” (GALDERMA LABORATORIES, INC., priority 2007, published 2011).

Key:
facial skin = conditions: 0.10% in a gel formulation, applied to facial skin fifteen minutes prior to shaving
Excerpt: Fifteen minutes prior to shaving, a person applies 0.10% brimonidine tartrate in a gel formulation to the facial skin where they will shave.

[1] = tested on: area of skin where the incision will be made; conditions: bandage soaked in a solution of 0.25%, applied thirty minutes prior to surgery, removed immediately before incision
Excerpt: Thirty minutes prior to undergoing surgery for an appendectomy, a bandage that is soaked in a solution of 0.25% brimonidine is applied to the area of skin where the incision will be made. The bandage is removed immediately before the incision is made.

[2] = tested on: patients undergoing LASIK surgery; conditions: prophylactic dosages prior to LASIK surgery for primary myopia/myopic astigmatism or hyperopic astigmatism; cited from earlier work

Structure (SMILES) | bleeding from cuts while shaving (facial skin) | bleeding and bruising following the surgical procedure [1] | hyperemia [2] | occurrence of subconjunctival hemorrhage [2]
Brc1c(N=C2NCCN2)ccc2nccnc12.O=C(O)C(O)C(O)C(=O)O [brimonidine tartrate, 5-bromo-6-(2-imidazolidinylideneamino) quinoxaline L-tartrate] | will prevent excessive bleeding |  |  | 
Brc1c(N=C2NCCN2)ccc2nccnc12 [brimonidine, 5-bromo-6-(2-imidazolidinylideneamino)quinoxaline] |  | will significantly reduce bleeding and bruising | less hyperemia | less occurrence
